For test [1], the system named is J4/JFH-1 (GT1b/2a HCV). Briefly: Inhibition of infectious virus release from Huh7 cells transfected with J4/JFH-1 RNA (focus forming assay). In kind it is cell-based, hepatitis C virus. The procedure: (§1) Figure 4 Selection of novel, structurally diverse p7 inhibitors. In silico screening using p7 channel models as a template derived a range of Lipinski-compliant potential inhibitors of the p7 channel complex and the top 30 were selected for testing as proof-of-principle. (A) Liposome dye release assay showing endpoint values compounds with activity against wild-type p7 at 250 nM that were subsequently selected for cell culture studies. Results are the average of two separate experiments with each condition in duplicate and are expressed as a percentage of the untreated protein value following baseline subtraction (liposomes alone). […] (B) Inhibition of infectious virus release from Huh7 cells transfected with J4/JFH-1 RNA using novel compounds (400 nM). Selected compounds show minimal effect on intracellular infectivity, replicon replication and have no toxic effects (see Supporting Fig. 5 and Table 2). […] (C) Structures of selected initial hit compounds. (D) Predicted docking poses of rimantadine novel compounds at the allosteric binding site (calculated in Glide, Schrodinger). Key interacting residues are highlighted.
Figure 6 Effects of novel inhibitors against multiple HCV genotypes. […] Results are representative of two independent experiments and are the average of triplicate wells. Error bars represent standard deviations. […]

Test [2] deals with Leu20Phe J4/JFH-1. In words: HCV spread following infection at low M.O.I., NS5A foci counted. In kind it is cell-based, hepatitis C virus. The settings on record: low multiplicity infection. From the text: Figure 5 Specificity of novel p7 inhibitors. Screening lead hits LDS19 and 21 were examined for specificity against wild-type and rimantadine resistant HCV. (A) Titration of LDS 19 and 21 against Huh7 cells transfected with both wild-type (diamonds) and Leu20Phe (squares) J4/JFH-1 RNA, showing effects on released infectivity. Graph plots the average released titers from duplicate wells from at least two separate experiments, normalized to the 100% untreated value. Error bars represent normalized percent error of the mean between experiments (*P < 0.05). (B) Effects of p7 inhibitors on HCV spread following infection at low M.O.I (0.0001 FFU/cell). Huh7 cells were infected in triplicate overnight with wild-type (black) and Leu20Phe (white) J4/JFH-1 and then media replaced after extensive washing with that containing inhibitors. Fluorescent NS5A foci were counted at 72 hours postinfection. […] Error bars represent normalized percent error of the mean (*P < 0.05, **P < 0.01). […] Results are the average of two separate experiments with duplicate wells and error bars are normalized percent error of the mean between experiments.

Test [3] concerns J4/JFH-1(L20F). The settings on record: subcytotoxic concentrations; cited from earlier work.
In test [4] the target is T1, genotype 1b p7 (Hepatitis C virus genotype 1b, UniProt O92972).
T1 construct: selected for testing against genotype 1b p7 in vitro; made in house; host or cells: Escherichia coli BL21(DE3)
T1 sequence (O92972 747-809): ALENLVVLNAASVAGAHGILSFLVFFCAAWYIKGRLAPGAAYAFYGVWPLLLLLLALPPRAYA
Briefly: Liposome carboxyfluorescein dye release assay for p7 channel activity. In kind it is biochemical. Particulars: genotype 1b p7 in vitro, prototype control, read-out: median inhibitory concentration [IC50]. The procedure:
Liposome carboxyfluorescein release assays were conducted as described previously.[13],[15],[28]
as §1

Like-named read-outs stand apart in the source and are kept apart here.

As for `CCCCCCCCCN1C[C@H](O)[C@@H](O)[C@H](O)[C@H]1CO` [NN-DNJ], the IC50 in test [1] (J4/JFH-1 RNA transfected Huh7, prototype shown for comparison, read-out: ∼IC50, infectious virus release) is roughly 20 µM.
As for `CC(N)C12CC3CC(CC(C3)C1)C2` (centres unmarked) [rimantadine], the “sensitivity of Leu20Phe HCV spread to compound” value in test [2] is listed as “insensitive”. The “effect on Leu20Phe infectious virion production” value in test [3] is given as “ineffective”. Moreover, the IC50 in test [4] was roughly 40 µM; in test [1] (Hepatitis C virus, GT1B, Huh-7, read-out: ∼IC50, infectious virus release), roughly 40 µM.

The values are drawn from publication PMC4298801, “Structure-Guided Design Affirms Inhibitors of Hepatitis C Virus p7 as a Viable Class of Antivirals Targeting Virion Release” (Hepatology (Baltimore, Md.), 2013).
